Target: T1, TRPC4-SYFP2 (TRPC4:C4 channels) (Homo sapiens, UniProt Q9UBN4)
T1 construct: expressed in transfected cells
T1 sequence (Q9UBN4 1-893 isoform Q9UBN4-2): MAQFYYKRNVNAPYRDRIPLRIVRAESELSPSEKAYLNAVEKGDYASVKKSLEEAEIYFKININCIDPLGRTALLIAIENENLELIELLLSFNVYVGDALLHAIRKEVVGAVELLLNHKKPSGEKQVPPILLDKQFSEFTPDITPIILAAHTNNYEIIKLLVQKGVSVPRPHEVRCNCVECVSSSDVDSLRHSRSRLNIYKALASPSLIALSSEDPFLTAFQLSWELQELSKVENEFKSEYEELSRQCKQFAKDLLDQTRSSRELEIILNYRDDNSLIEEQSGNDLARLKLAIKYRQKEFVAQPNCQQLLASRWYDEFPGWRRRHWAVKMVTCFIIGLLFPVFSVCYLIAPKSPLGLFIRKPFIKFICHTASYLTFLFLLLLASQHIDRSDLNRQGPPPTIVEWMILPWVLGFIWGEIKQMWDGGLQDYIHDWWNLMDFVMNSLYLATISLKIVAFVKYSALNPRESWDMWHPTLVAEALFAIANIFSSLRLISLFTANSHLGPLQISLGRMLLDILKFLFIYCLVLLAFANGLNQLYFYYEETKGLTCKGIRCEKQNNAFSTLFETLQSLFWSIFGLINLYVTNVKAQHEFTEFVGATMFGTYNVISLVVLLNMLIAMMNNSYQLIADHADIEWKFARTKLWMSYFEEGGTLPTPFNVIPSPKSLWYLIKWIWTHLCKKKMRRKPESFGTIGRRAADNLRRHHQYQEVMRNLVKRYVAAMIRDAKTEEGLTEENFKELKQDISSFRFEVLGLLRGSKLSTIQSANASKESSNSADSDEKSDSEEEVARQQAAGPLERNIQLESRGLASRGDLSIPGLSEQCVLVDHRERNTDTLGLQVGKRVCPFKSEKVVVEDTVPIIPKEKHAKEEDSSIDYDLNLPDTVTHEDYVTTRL
Assay: [Ca2+]i measurement in (Tet+) HEK T-REx cells expressing hTRPC4-SYFP2
Type: cell-based
Excerpt: To facilitate cloning of TRPC5‐SYFP2 and TRPC4‐SYFP2, a pcDNA™4/TO expression vector (ThermoFisher Scientific, Waltham, MA, USA), into which a four amino acid linker (ASAS) flanked by AgeI and SacII restriction sites had been introduced between EcoRI and XhoI restriction sites, was used (Naylor et al., 2016). Human TRPC4β was inserted between BamHI and AgeI restriction sites as described previously (Ludlow et al., 2017). Human TRPC5 (forward primer: 5′ GCTTGGTACCGCCACCATG 3′ and reverse primer: 5′ […] 3′) was inserted upstream of the linker between KpnI and AgeI restriction sites using hTRPC5/pcDNA™4/TO (Zeng et al., 2004) as a PCR template. Both constructs contained an N‐terminal Kozak sequence. SYFP2 was inserted downstream of the linker between SacII and XbaI restriction sites using pSYFP2‐C1 as a PCR template (forward primer, 5′ […] 3′; reverse primer, 5′ […] 3′). pSYFP2‐C1 was a gift from Dorus Gadella (Addgene plasmid #22878; http://n2t.net/addgene:22878; RRID:Addgene_22878; Kremers, Goedhart, van Munster, & Gadella, 2006). Plasmids were sequenced to verify identity.
HEK T‐REx™ cell line was transfected with TRPC5‐SYFP2 or TRPC4‐SYFP2 using FuGENE® HD transfection reagent. After 48 hr, cells were put under antibiotic selection using 400 μg·ml^−1 zeocin and 10 μg·ml^−1 blasticidin S (Invivogen, San Diego, California, USA). Medium changes were carried out regularly to remove dead cells. HEK T‐REx cells expressing tetracycline‐inducible human TRPC5, TRPC4–C1, and TRPC5–C1 were created as described previously (Akbulut et al., 2015; Ludlow et al., 2017; Rubaiy, Ludlow, Henrot, et al., 2017). TRPC5–C1 and TRPC4–C1 concatemers allow expression of functional channels with defined 2:2 stoichiometry that display ion permeability and current–voltage relationships distinct from those of homomeric TRPC4:C4 or TRPC5:C5 channels and consistent with those obtained upon co‐expression of TRPC1 with TRPC4 or TRPC5 (Ludlow et al., 2017; Rubaiy, Ludlow, Bon, & Beech, 2017; Rubaiy, Ludlow, Henrot, et al., 2017). […]

In the case of `Cn1c(=O)n(CCCO)c(=O)c2c1nc(Oc1ccc(Cl)c(OC(F)(F)F)c1)n2Cc1ccc(Cl)cc1` [AM237], the “Hill slope, inhibition of EA response” value is reported as −0.78, the “Effect of pretreatment on basal [Ca2+]i” value (0.3–300 nM AM237) is reported as “did not affect” and the “Activation upon acute administration ([Ca2+]i)” value (3-300 nM AM237) is reported as “lack of activation”.

Reference: article PMC6811774, “Potent, selective, and subunit‐dependent activation of TRPC5 channels by a xanthine derivative” (British Journal of Pharmacology, 2019)
